Measured values as given in ChEMBL document CHEMBL4138123, “Design, synthesis and biological evaluation of novel pyrazolochalcones as potential modulators of PI3K/Akt/mTOR pathway and inducers of apoptosis in breast cancer cells” (Eur J Med Chem, 2017).

What was measured:
Format in all cases: functional
[1] = test system: MCF7; assay: Cytotoxicity against human MCF7 cells assessed as cell growth at 10 uM after 48 hrs by sulforhodamine B assay relative to control; details: MCF7, 48 h, read-out: Activity
[2] = test system: OVCAR-4; assay: Cytotoxicity against human OVCAR4 cells assessed as cell growth at 100 uM after 48 hrs by sulforhodamine B assay relative to control; details: OVCAR-4, 48 h, read-out: Activity
[3] = test system: U-251; assay: Cytotoxicity against human U251 cells assessed as cell growth at 0.1 uM after 48 hrs by sulforhodamine B assay relative to control; details: U-251, 48 h, read-out: Activity
[4] = test system: NCI-H522; assay: Cytotoxicity against human NCI-H522 cells assessed as cell growth at 0.01 uM after 48 hrs by sulforhodamine B assay relative to control; details: NCI-H522, 48 h, read-out: Activity
[5] = test system: SF-268; assay: Cytotoxicity against human SF268 cells assessed as cell growth at 1 uM after 48 hrs by sulforhodamine B assay relative to control; details: SF-268, 48 h, read-out: Activity
[6] = test system: NCI-H522; assay: Cytotoxicity against human NCI-H522 cells assessed as cell growth at 10 uM after 48 hrs by sulforhodamine B assay relative to control; details: NCI-H522, 48 h, read-out: Activity
[7] = test system: Malme-3M; assay: Cytotoxicity against human MALME-3M cells assessed as cell growth at 0.1 uM after 48 hrs by sulforhodamine B assay relative to control; details: read-out: Activity
[8] = test system: Hs-578T; assay: Cytotoxicity against human Hs 578T cells assessed as growth inhibition after 48 hrs by sulforhodamine B assay
[9] = test system: MCF7; assay: Cytotoxicity against human MCF7 cells assessed as cell growth at 0.1 uM after 48 hrs by sulforhodamine B assay relative to control; details: MCF7, 48 h, read-out: Activity
[10] = test system: UACC-62; assay: Cytotoxicity against human UACC62 cells assessed as cell growth at 100 uM after 48 hrs by sulforhodamine B assay relative to control; details: UACC-62, 48 h, read-out: Activity
[11] = test system: UACC-257; assay: Cytotoxicity against human UACC257 cells assessed as cell growth at 0.01 uM after 48 hrs by sulforhodamine B assay relative to control; details: UACC-257, 48 h, read-out: Activity
[12] = test system: SW-620; assay: Cytotoxicity against human SW620 cells assessed as cell growth at 0.1 uM after 48 hrs by sulforhodamine B assay relative to control; details: SW-620, 48 h, read-out: Activity
[13] = test system: BT-549; assay: Cytotoxicity against human BT549 cells assessed as cell growth at 100 uM after 48 hrs by sulforhodamine B assay relative to control; details: BT-549, 48 h, read-out: Activity
[14] = test system: MDA-MB-435; assay: Cytotoxicity against human MDA-MB-435 cells assessed as cell growth at 10 uM after 48 hrs by sulforhodamine B assay relative to control; details: MDA-MB-435, 48 h, read-out: Activity
[15] = test system: UACC-62; assay: Cytotoxicity against human UACC62 cells assessed as cell growth at 0.1 uM after 48 hrs by sulforhodamine B assay relative to control; details: UACC-62, 48 h, read-out: Activity
[16] = test system: OVCAR-4; assay: Cytotoxicity against human OVCAR4 cells assessed as growth inhibition after 48 hrs by sulforhodamine B assay; details: OVCAR-4, 48 h
[17] = test system: T47D; assay: Cytotoxicity against human T47D cells assessed as cell growth at 10 uM after 48 hrs by sulforhodamine B assay relative to control; details: read-out: Activity
[18] = test system: MDA-MB-435; assay: Cytotoxicity against human MDA-MB-435 cells assessed as cell growth at 100 uM after 48 hrs by sulforhodamine B assay relative to control; details: MDA-MB-435, 48 h, read-out: Activity
[19] = test system: DU-145; assay: Cytotoxicity against human DU145 cells assessed as growth inhibition after 48 hrs by sulforhodamine B assay; details: DU-145, 48 h
[20] = test system: Hs-578T; assay: Cytotoxicity against human Hs 578T cells assessed as cell growth at 0.1 uM after 48 hrs by sulforhodamine B assay relative to control; details: read-out: Activity
[21] = test system: 786-0; assay: Cytotoxicity against human 786-0 cells assessed as cell growth at 0.1 uM after 48 hrs by sulforhodamine B assay relative to control; details: 786-0, 48 h, read-out: Activity
[22] = test system: PC-3; assay: Cytotoxicity against human PC3 cells assessed as cell growth at 100 uM after 48 hrs by sulforhodamine B assay relative to control; details: PC-3, 48 h, read-out: Activity
[23] = test system: SNB-19; assay: Cytotoxicity against human SNB19 cells assessed as growth inhibition after 48 hrs by sulforhodamine B assay; details: SNB-19, 48 h
[24] = test system: PC-3; assay: Cytotoxicity against human PC3 cells assessed as cell growth at 1 uM after 48 hrs by sulforhodamine B assay relative to control; details: PC-3, 48 h, read-out: Activity
[25] = test system: HCT-116; assay: Cytotoxicity against human HCT116 cells assessed as cell growth at 0.1 uM after 48 hrs by sulforhodamine B assay relative to control; details: HCT-116, 48 h, read-out: Activity
[26] = test system: UACC-257; assay: Cytotoxicity against human UACC257 cells assessed as cell growth at 0.1 uM after 48 hrs by sulforhodamine B assay relative to control; details: UACC-257, 48 h, read-out: Activity
[27] = test system: HL-60(TB); assay: Cytotoxicity against human HL-60(TB) cells assessed as cell growth at 0.1 uM after 48 hrs by sulforhodamine B assay relative to control; details: HL-60, 48 h, read-out: Activity
[28] = test system: BT-549; assay: Cytotoxicity against human BT549 cells assessed as growth inhibition after 48 hrs by sulforhodamine B assay; details: BT-549, 48 h
[29] = test system: RXF 393; assay: Cytotoxicity against human RXF393 cells assessed as growth inhibition after 48 hrs by sulforhodamine B assay; details: RXF 393, 48 h
[30] = test system: U-251; assay: Cytotoxicity against human U251 cells assessed as growth inhibition after 48 hrs by sulforhodamine B assay; details: U-251, 48 h
[31] = test system: ACHN; assay: Cytotoxicity against human ACHN cells assessed as cell growth at 0.01 uM after 48 hrs by sulforhodamine B assay relative to control; details: read-out: Activity
[32] = test system: NCI-H322M; assay: Cytotoxicity against human NCI-H322M cells assessed as cell growth at 10 uM after 48 hrs by sulforhodamine B assay relative to control; details: read-out: Activity
[33] = test system: OVCAR-3; assay: Cytotoxicity against human OVCAR3 cells assessed as cell growth at 0.01 uM after 48 hrs by sulforhodamine B assay relative to control; details: OVCAR-3, 48 h, read-out: Activity
[34] = test system: RXF 393; assay: Cytotoxicity against human RXF393 cells assessed as cell growth at 1 uM after 48 hrs by sulforhodamine B assay relative to control; details: RXF 393, 48 h, read-out: Activity
[35] = test system: UACC-257; assay: Cytotoxicity against human UACC257 cells assessed as growth inhibition after 48 hrs by sulforhodamine B assay; details: UACC-257, 48 h
[36] = read-out: LC50 (the source's name)

COc1ccc(-c2cc(/C=C/C(=O)c3ccc(OC)c(OC)c3)[nH]n2)cc1
growth at 10 µM [1]: -82%
growth at 100 µM [2]: -77%
growth at 0.1 µM [3]: 84%
growth at 0.01 µM [4]: 102%
growth at 1 µM [5]: 86%
growth at 10 µM [6]: -68%
growth at 0.1 µM [7]: 89%
GI50 [8]: 3.38 µM
LC50 [8]: > 100 µM
TGI [8]: 29 µM
growth at 0.1 µM [9]: 88%
growth at 100 µM [10]: -100%
growth at 0.01 µM [11]: 92%
growth at 0.1 µM [12]: 99%
growth at 100 µM [13]: -99%
growth at 10 µM [14]: -64%
growth at 0.1 µM [15]: 93%
GI50 [16]: 0.59 µM
LC50 [16]: 28.4 µM
TGI [16]: 3.87 µM
growth at 10 µM [17]: -28%
growth at 100 µM [18]: -91%
GI50 [19]: 1.4 µM
TGI [19]: 2.81 µM
CC50 [19, 36]: 5.64 µM
growth at 0.1 µM [20]: 92%
growth at 0.1 µM [21]: 102%
growth at 100 µM [22]: -90%
GI50 [23]: 1.88 µM
TGI [23]: 5.28 µM
CC50 [23, 36]: 19.6 µM
growth at 1 µM [24]: 71%
growth at 0.1 µM [25]: 105%
growth at 0.1 µM [26]: 86%
growth at 0.1 µM [27]: 104%
GI50 [28]: 1.68 µM
LC50 (concentration killing 50% of cells) [28]: 7.4 µM
TGI [28]: 3.53 µM
GI50 [29]: 1.39 µM
LC50 (concentration killing 50% of cells) [29]: 6.2 µM
TGI [29]: 2.94 µM
GI50 [30]: 1.11 µM
LC50 [30]: 4.97 µM
TGI [30]: 2.34 µM
growth at 0.01 µM [31]: 100%
growth at 10 µM [32]: -32%
growth at 0.01 µM [33]: 106%
growth at 1 µM [34]: 72%
GI50 [35]: 1.73 µM
LC50 [35]: 7.72 µM
TGI [35]: 3.65 µM
